For test [1], the system named is transcription control region for exon 1b of human aromatase gene. The test is described as follows: Luciferase reporter assay, Ex1b-luc in HepG2 cell (expression of exon 1b of aromatase gene). In kind it is cell-based. To be noted: added at 1%, 20 hours. On the procedure: The region containing transcription control region for exon 1b of human aromatase gene and a part of the exon 1b was amplified by PCR from genomic DNA extracted from human normal keratinocyte by using the following primers: […]
The resulting PCR product was treated with restriction enzymes SpeI and EcoRI, and incorporated in SpeI site and EcoRI site in SeaPansy null Control Vector (Toyo Ink Mfg. Co., Ltd.) to produce Ex1b-luc plasmid. This plasmid was used in the luciferase assay as will be described below.
Immortalized human hepatoma-derived cell (HepG2 cell) […]
The transfected cells were cultivated overnight, and plant extract prepared in Production Example 1, Table 2, or yeast extract (“YeastLiquid B”, Ichimaru Pharcos Co Ltd.), silk protein extract (“Silkgen G Soluble KE”, Ichimaru Pharcos Co Ltd.), milk protein (“Bioderma SX-14” Ichimaru Pharcos Co Ltd.), “lactoferrin S FREE”, Ichimaru Pharcos Co Ltd.), natto extract (“Soybean polymer F B-20”, Ichimaru Pharcos Co Ltd.), or royal jelly (“royal jelly extract”, Ichimaru Pharcos Co Ltd.) was added (1% or 0.1%), and the cultivation was continued for another 20 hours. After adding 20 μL of alamarBlue (BIOSOURCE), fluorescence intensity (excitation light 544 nm, fluorescence 590 nm) was measured. Luciferase activity was also measured by using PicaGene Dual SeaPansy Luminescence kit (Nippon Gene). […]
In general terms: In a reporter assay the amount or activity of a reporter protein is the signal.

The test system of test [2] is HepG2 cell. Briefly: alamarBlue fluorescence in Ex1b-luc transfected HepG2 cell. To be noted: added at 1%, 20 hours. In kind it is cell-based, human. On the procedure: Immortalized human hepatoma-derived cell (HepG2 cell)
HepG2 cell was inoculated to 96 well culture plate at 30,000 cells per well, and Ex1b-luc was introduced using lipofectamine reagent (Invitrogen) according to the protocol described in the attached manual. The DNA was used at an amount of 0.1 μg per well. The same procedure was repeated for control without adding the DNA (2 wells).
The transfected cells were cultivated overnight, and plant extract prepared in Production Example 1, Table 2, or yeast extract (“YeastLiquid B”, Ichimaru Pharcos Co Ltd.), silk protein extract (“Silkgen G Soluble KE”, Ichimaru Pharcos Co Ltd.), milk protein (“Bioderma SX-14” Ichimaru Pharcos Co Ltd.), “lactoferrin S FREE”, Ichimaru Pharcos Co Ltd.), natto extract (“Soybean polymer F B-20”, Ichimaru Pharcos Co Ltd.), or royal jelly (“royal jelly extract”, Ichimaru Pharcos Co Ltd.) was added (1% or 0.1%), and the cultivation was continued for another 20 hours. After adding 20 μL of alamarBlue (BIOSOURCE), fluorescence intensity (excitation light 544 nm, fluorescence 590 nm) was measured. Luciferase activity was also measured by using PicaGene Dual SeaPansy Luminescence kit (Nippon Gene). The cells were lysed by adding 25 μL per well of the lysis buffer that had been diluted 5× lysis buffer to 1× concentration.

This note sets out measurements from patent US7887851B2, “Aromatase activator” (Kao Corporation, priority 2004, dated 2011).

Structures are written as SMILES.

As for `OC[C@H]1O[C@H](O[C@H]2O[C@H](CO)[C@@H](O)[C@H](O)[C@H]2O)[C@H](O)[C@@H](O)[C@@H]1O` [Trehalose, trehalose], in test [1], the Luciferase activity was determined as 141.0%. Also, the AlamarBlue activity in test [2] amounted to 113.9%.
